Data published in patent US20050014268A1, “Genetic transformation using a PARP inhibitor” (Bayer BioScience NV, priority 1995, published 2005).
Marks after values point to notes of the source that are not given here.

Legend:
Wheat embryogenic callus = assay: Tissue culture of wheat embryogenic callus on W2 medium containing niacinamide; assay type: cell-based
Protocol: After the one day incubation the capacity of the transformed and control tissues to reduce 2,3,5-triphenyltetrazolium chloride (TTC) is measured e.g. by the following procedure which is modified from Towill and Mazur (supra): • incubate the tissues for 1 to 4 hours in K-phosphate buffer (pH 7.4) containing 10 mM TTC and 0.1% Tween20. […] The O.D. of the control extract is subtracted from the OD of the TTC-reacted extracts. In the above conditions 0.1 mM reduced TTC corresponds to an OD485 of 0.214 or OD545 of 1.025 (light path 1 cm). • the reducing capacity of the transformed plant line is compared to that of the control line. Wheat embryogenic callus was cultured on W2 medium (see Example 2).

[1] = tested on: wheat embryogenic callus (variety Pavon); assay: Transformation of wheat calli with barnase/bar plasmids by particle bombardment, with niacinamide treatment of the calli; assay type: cell-based
Protocol: The Wheat Spring variety Pavon is grown in a greenhouse or conditioned room at 23-24° C. during daytime and 18-20° C. at night, with a photoperiod of 16 hours light and 8 hours dark. Developing seeds (white-greenish with white semi-liquid endosperm) were harvested, sterilized by incubation for 1 minute in 70% ethanol followed by 15 minute incubation in 1.3% NaOCl+0.1% Tween 20, and washed with sterile water. The sterilized seeds were either used directly or were stored for one day at 4-7° C.
Immature embryos of about 1 mm in size were isolated and were placed, with the scutellum upwards, on callus inducing medium W1 (MS medium supplemented with 3% sucrose, 40 mg/l adenine.SO4, 0.5 mg/l thiamine.HCl, 0.5 g/l 2-[N-Morpholino] ethane sulfonic acid (Mes) pH 5.8, 0.5% agarose, 0.5 to 2.5 mg/l CuSO4.5H2O, 25 mg/l acetylsalicylic acid and 2 mg/l 2,4-dichlorophenoxyacetic acid (2,4-D)) and were incubated for 3 weeks at 27° C. in the dark.
Embryogenic sections of the developing callus were isolated, placed on callus maintenance medium W2 (W1 medium but without acetylsalicylic acid and with only 0.5 mg/l CuSO4.5H2O and 1 mg 2,4-D), and incubated for 3 weeks at 24-25° C. in the light (approx. 20 mEinsteins/s/m^2 (with a photoperiod of 16 hours light and 8 hours dark).
About 2 weeks prior to bombardment the calli were cleaned up by removal of non-morphogenic (i.e. the nonembryogenic and nonmeristematic) parts and were subcultured on W2 medium.
For bombardment the calli were divided into small pieces with an average maximum diameter of about 2-3 mm. These pieces were placed at the center of a 9 cm Petridish containing W2 medium in a circle with a diameter of approx. 0.5 cm. […]
Bombardment was carried out using the Biolistic PDS-1000/He apparatus (Bio-Rad). Preparation of the microcarriers ([…]) and the coating of the microcarriers with DNA was essentially carried out according to the manufacturer's instructions. The Petridishes containing the calli were placed at level 2 of the apparatus and the bombardment was done at 1550 psi.
For the transformation experiments the following plasmid DNA was used. • plasmid pVE136, the sequence of which is given in SEQ ID No 4. This plasmid contains the following chimeric genes: • P35S-bar-3′nos • PCA55-barnase-3′nos • in which P35S is the 35S promoter of the Cauliflower, Mosaic virus, bar is a DNA encoding phosphinothricin acetyltransferase (EP 242236), 3′nos is the 3′ untranslated end of the Agrobacterium T-DNA nopaline synthase gene, PCA55 is a stamen-specific promoter from corn gene CA55 (WO 9213957), and barnase is a DNA encoding barnase (Hartley, 1988, J.Mol.Biol.202:913-915) • plasmid pTS172 the sequence of which is given in SEQ ID No 2. This plasmid contains the following chimeric genes: • P35S-bar-3′g7 • PE1-barnase-3′nos • in which in which P35S is the 35S promoter of the Cauliflower Mosaic virus, bar is a DNA encoding phosphinothricin acetyltransferase (EP 242236), 3′g7 is the 3′ untranslated end of the Aqrobacterium T-DNA gene 7, PE1 is a stamen-specific promoter from rice gene E1 (WO 9213956), barnase is a DNA encoding barnase (Hartley, 1988, J.Mol.Biol.202:913-915), and 3′ nos is the 3′ untranslated end of the Agrobacterium T-DNA nopaline synthase gene, • plasmid pTS772 which is identical to pTS172 except that the region between nucleotides 2625-4313 of pTS172, containing PE1, is replaced by the sequence of SEQ ID No 3 containing the PT72 promoter. Thus, plasmid pTS772 contains the following chimeric genes: • P35S-bar-3′g7 • PT72-barnase-3′nos • in which PT72 is a stamen-specific promoter from rice gene T72 (WO 9213956)
The bombarded calli were transferred to selective medium W2 containing 2.5 mg/l phosphinothricin (PPT) and, if neccesary, 100 mg/l niacinamide. The calli that were placed on medium containing niacinamide were transferred after 4 days to niacinamide-free W2 medium containing 2.5 mg/l PPT. The cells were cultured at 24-25° C. […]

[2] = Plasmid pTS172, Before 250, 125 bombarded calli
[3] = Plasmid pTS772, Before 250, 210 bombarded calli
[4] = Plasmid pTS772, Before/After, 210 bombarded calli

## NC(=O)c1cccnc1 [niacinamide]
Wheat embryogenic callus; 250 mg/l (approx. 2 mM) niacinamide in W2 medium, growth slowed after 4 days, rate after 4 weeks
  growth of the tissue (rate relative to the normal rate): approximately 30%
Wheat embryogenic callus; 250 mg/l niacinamide in W2 medium, at least one month
  viability of the tissue: remained viable for extended periods of time
Wheat embryogenic callus; after 4-5 days of incubation with niacinamide
  TTC-reducing capacity of the tissue: substantially decreased
Wheat embryogenic callus; niacinamide subsequently removed from the medium
  growth after removal of niacinamide from the medium: started to grow normally again
[1]; Plasmid pTS172, Before 250 (250 mg/l niacinamide for four days prior to bombardment), 125 bombarded calli
  Nr of PPT-resistant calli recovered: 30
[1]; [2]
  Nr of MS plants recovered: 3^b)
  Nr of PPT resistant plants recovered: 3
[1]; Plasmid pTS172, Before 250, MS plants
  appearance of the obtained plants: ^b)The obtained plants looked healthy and tillered vigorously
[1]; [3]
  Nr of PPT resistant plants recovered: 7
  Nr of PPT-resistant calli recovered: 75
[1]; Plasmid pTS772, Before 250, 210 bombarded calli, only six plants could be analyzed for MS phenotype
  Nr of MS plants recovered: 3^a)b)
[1]; Plasmid pTS772, Before 250 and Before/After, MS plants
  appearance of the obtained plants: ^a)The obtained plants looked healthy and tillered vigorously
[1]; Plasmid pTS772, Before/After (250 mg/l four days prior plus 100 mg/l four days after bombardment), 210 bombarded calli
  Nr of PPT-resistant calli recovered: 45
[1]; [4]
  Nr of MS plants recovered: 3^a
  Nr of PPT resistant plants recovered: 6
[1]; Plasmid pVE136, Before 100 (100 mg/l niacinamide for four days prior to bombardment), 800 bombarded calli
  Nr of PPT resistant plants recovered: 8^a)
[1]; Plasmid pVE136, Before 100, 800 bombarded calli
  Nr of MS plants recovered: 8
[1]; Plasmid pVE136, Before 100, PPT resistant plants
  appearance of the obtained plants: ^a)The obtained plants looked healthy and tillered vigorously
[1]; Tables 1, 2 and 3, treated versus untreated calli
  recovery of plants from bombarded calli: obtained only from bombarded calli that were treated with niacinamide
